Experimental data as given in PubChem BioAssay (NCI).
Values joined by “and” are separate entries in the source; they are usually repeats but may differ in a detail not shown here. Equal entries are not always repeated.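 Cultured in 96-well plates, cells were exposed to test compound for 48 hours across five concentrations. The concentration for 50% growth inhibition is given as GI50. At the TGI there is no net growth.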

What was measured:
Experiment in all cases: DTP human tumour cell line panel, 48 h
UACC-62 melanoma = system: UACC-62 melanoma
HCC-2998 colon = system: HCC-2998 colon
TK-10 renal = system: TK-10 renal
SF-295 CNS = system: SF-295 CNS
SK-OV-3 ovarian = system: SK-OV-3 ovarian
SK-MEL-28 melanoma = system: SK-MEL-28 melanoma
SK-MEL-5 melanoma = system: SK-MEL-5 melanoma
HOP-62 NSCLC = system: HOP-62 NSCLC
NCI-H23 lung = system: NCI-H23 lung
A549 NSCLC = system: A549 NSCLC

Structure (SMILES)	TGI (UACC-62 melanoma)	TGI (HCC-2998 colon)	TGI (TK-10 renal)	TGI (SF-295 CNS)	TGI (SK-OV-3 ovarian)	TGI (SK-MEL-28 melanoma)	TGI (SK-MEL-5 melanoma)	TGI (HOP-62 NSCLC)	TGI (NCI-H23 lung)	TGI (A549 NSCLC)	GI50 (UACC-62 melanoma)	GI50 (HCC-2998 colon)	GI50 (SF-295 CNS)	GI50 (SK-OV-3 ovarian)	GI50 (SK-MEL-28 melanoma)	GI50 (SK-MEL-5 melanoma)	GI50 (HOP-62 NSCLC)	GI50 (NCI-H23 lung)	GI50 (A549 NSCLC)	GI50 (TK-10 renal)
Clc1ccc2c(NCCNc3ccnc4cc(Cl)ccc34)ccnc2c1	33100 nM	28500 nM	34.6 µM	26200 nM	31.5 µM	32.5 µM	38100 nM	30100 nM	33200 nM	35.6 µM										
COc1ccc(Cl)cc1NC(=O)c1c(NC(=O)C(F)(F)C(F)(F)F)sc2c1CCCCC2	3860 nM	> 100000 nM		3730 nM	6.89 µM	> 100 µM	585 nM	7000 nM	7380 nM	> 100 µM	397 nM	1880 nM	1030 nM	2180 nM	1900 nM	242 nM	2490 nM	1540 nM	2540 nM	
COc1ccc(CCCC(=O)O)c(C)c1	> 100000 nM		> 100 µM	> 100000 nM		> 100 µM	> 100000 nM	75000 nM	> 100000 nM	> 100 µM										
COc1cccc2c1C(=O)c1c(O)c3c(c(O)c1C2=O)C[C@@](O)(/C(C)=N/NC(=O)c1ccccc1)C[C@@H]3OC1CC(N)C(O)C(C)O1 (stereo not given in full)	1190 nM	2020 nM	5.85 µM	1840 nM	4.56 µM	4.02 µM	740 nM	715 nM	1540 nM	4.25 µM										
COC(=O)c1cc2c3c(cc(O)c2[nH]1)N(C(=O)C1Cc2cc(OC)c(OC)c(OC)c2N1)CC3CCl (stereo not given)		113 nM	< 0.01 µM	< 10 nM	< 0.01 µM	< 0.01 µM	< 10 nM		< 10 nM	1.36 µM		< 10 nM	< 10 nM	< 10 nM	< 10 nM	< 10 nM		< 10 nM	< 10 nM	< 10 nM
Nc1nc(N)c2nc(-c3ccco3)cnc2n1	> 100000 nM	> 100000 nM	> 100 µM	> 100000 nM	> 100 µM	> 100 µM	> 100000 nM	> 100000 nM	> 100000 nM	> 100 µM										
CC[C@@]1(O)C(=O)OCc2c1cc1n(c2=O)Cc2c-1nc1ccccc1c2/C=N\NC(=O)C(N)Cc1cnc[nH]1 (stereo not given in full)	1220 nM	> 67500 nM	> 100 µM		> 100 µM	> 100 µM	1030 nM	299 nM	2450 nM	> 100 µM										
COc1cc2cc(C(=O)N3CC(CCl)c4c3cc(N(C)C)c3ccccc43)[nH]c2c(OC)c1OC (stereo not given)	16.7 nM	80.9 nM	> 100 µM	38.1 nM	0.0395 µM		24.1 nM	52.9 nM	12.7 nM											
CCOC(=O)c1c(C)[nH]c(/C=C2\N=C(c3ccc[nH]3)C=C2OC)c1C	90.4 nM	1180 nM	1.75 µM	624 nM	3.71 µM		69.8 nM	1170 nM	2030 nM	1.28 µM	30.9 nM	49.7 nM	105 nM	413 nM		23.1 nM	40.6 nM	235 nM	45.7 nM	30.7 nM
O=C1C=C(N2CC2)C(=O)C=C1N1CC1		150 nM and 739 nM	0.772 µM	266 nM and 1300 nM	2.19 µM	0.68 µM and 0.654 µM	72 nM and 307 nM	738 nM	132 nM and 289 nM	11.2 µM	10 nM	23.4 nM	38 nM		187 nM	15.5 nM	68.7 nM	14.1 nM	145 nM and 860 nM	208 nM
